Target: T1, His6-PDK1(Δ1-50) (Homo sapiens, UniProt O15530)
T1 construct: His6 (N)
T1 sequence (O15530 51-556): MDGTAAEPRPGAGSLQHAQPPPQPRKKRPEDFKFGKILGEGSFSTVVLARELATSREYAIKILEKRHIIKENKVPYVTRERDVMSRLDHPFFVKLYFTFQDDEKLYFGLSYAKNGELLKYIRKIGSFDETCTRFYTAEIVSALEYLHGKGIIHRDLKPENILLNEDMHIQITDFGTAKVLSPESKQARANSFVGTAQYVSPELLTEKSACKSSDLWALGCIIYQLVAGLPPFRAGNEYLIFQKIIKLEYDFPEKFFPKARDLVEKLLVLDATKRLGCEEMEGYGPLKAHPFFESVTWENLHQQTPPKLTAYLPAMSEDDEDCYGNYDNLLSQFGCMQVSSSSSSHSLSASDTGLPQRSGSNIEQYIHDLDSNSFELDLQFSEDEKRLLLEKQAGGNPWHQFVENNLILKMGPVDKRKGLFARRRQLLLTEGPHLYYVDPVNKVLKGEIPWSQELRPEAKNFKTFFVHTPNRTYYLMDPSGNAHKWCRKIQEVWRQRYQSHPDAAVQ
Experiment: Inhibition of PDK1 (IC50), 384-well flashplate kinase assay
Type: biochemical
Conditions: 4 μM ATP, 400 nM PDKtide
Method: Inhibition of PDK1 (IC50)
The kinase assay can be carried out as a 384-well flashplate assay. 3.4 nM His6-PDK1(Δ1-50), 400 nM PDKtide (biotin-bA-bA-[…]) and 4 μM ATP (with 0.2 μCi of 33P-ATP/well) are incubated at […] for 60 min in a total volume of 50 μl (50 mM TRIS, 10 mM Mg acetate, 0.1% of mercaptoethanol, 0.02% of Brij35, 0.1% of BSA, pH 7.5) with or without test substance (5-10 concentrations). The reaction is stopped using 25 μl of 200 mM EDTA solution, filtered with suction after 30 min at room temperature, and the wells are washed with 3 times 100 μl of 0.9% NaCl solution. The nonspecific content of the kinase reaction (blank) is determined using 100 nM staurosporine. Radioactivity is measured using a Topcount scintillation counter (PerkinElmer, USA). IC50 values are calculated using the RS1 computer program.

[1] = first part of Table 1 (compounds 1-31)
[2] = second part of Table 1 (compounds 32-124)

| Structure (SMILES) | IC50 [1] [nM] | IC50 [2] [nM] |
| --- | --- | --- |
| CN1CCC(N(C)c2ncc3c(n2)Nc2ccccc2NC3=O)CC1 [Compound 1] | 2300 | – |
| Cc1ccc2c(c1)Nc1nc(N(C)C3CCN(C)CC3)ncc1C(=O)N2 [Compound 2, 7-Methyl-3-[methyl(1-methylpiperidin-4-yl)amino]-5,10-dihydro-2,4,5,10-tetraazadibenzo[a,d]cyclohepten-11-one] | 2400 | – |
| Cc1cc2c(cc1C)Nc1nc(N(C)C3CCN(C)CC3)ncc1C(=O)N2 [Compound 3, 7,8-Dimethyl-3-[methyl(1-methylpiperidin-4-yl)amino]-5,10-dihydro-2,4,5,10-tetraazadibenzo[a,d]cyclohepten-11-one] | 1000 | – |
| CN1CCC(N(C)c2ncc3c(n2)Nc2ccc(Cl)cc2NC3=O)CC1 [Compound 4, 8-Chloro-3-[methyl(1-methylpiperidin-4-yl)amino]-5,10-dihydro-2,4,5,10-tetraazadibenzo[a,d]cyclohepten-11-one] | 1400 | – |
| COc1ccc2c(c1)NC(=O)c1cnc(N(C)C3CCN(C)CC3)nc1N2 [Compound 5, S-Methoxy-3-[methyl(1-methylpiperidin-4-yl)amino]-5,10-dihydro-2,4,5,10-tetraazadibenzo[a,d]cyclohepten-11-one] | 800 | – |
| Cc1ccc2c(c1)NC(=O)c1cnc(N(C)C3CCN(C)CC3)nc1N2 [Compound 6, 8-Methyl-3-[methyl(1-methylpiperidin-4-yl)amino]-5,10-dihydro-2,4,5,10-tetraazadibenzo[a,d]cyclohepten-11-one] | 1100 | – |
| COc1ccc2c(c1)NC(=O)c1cnc(NC3CCN(C)CC3)nc1N2 [Compound 7, 8-Methoxy-3-(1-methylpiperidin-4-ylamino)-5,10-dihydro-2,4,5,10-tetraazadibenzo[a,d]cyclohepten-11-one] | 3100 | – |
| Cc1cc2c(cc1C)Nc1nc(NC3CCN(C)CC3)ncc1C(=O)N2 [Compound 8, 7,8-Dimethyl-3-(1-methylpiperidin-4-ylamino)-5,10-dihydro-2,4,5,10-tetraazadibenzo[a,d]cyclohepten-11-one] | 2500 | – |
| Cc1ccc2c(c1)Nc1nc(NC3CCN(C)CC3)ncc1C(=O)N2 [Compound 9, 7-Methyl-3-(1-methylpiperidin-4-ylamino)-5,10-dihydro-2,4,56,10-tetraazadibenzo[a,d]cyclohepten-11-one] | 4800 | – |
| CN1CCC(N(C)c2ncc3c(n2)Nc2cc(Cl)ccc2NC3=O)CC1 [Compound 10] | 1700 | – |
| CN1CCC(Nc2ncc3c(n2)Nc2cc(C(F)(F)F)ccc2NC3=O)CC1 [Compound 11] | 3900 | – |
| Cc1ccc2c(c1)NC(=O)c1cnc(NC3CCN(C)CC3)nc1N2 [Compound 12] | 900 | – |
| CN1CCC(N(C)c2ncc3c(n2)Nc2ccc(Br)cc2NC3=O)CC1 [Compound 13] | 1700 | – |
| Cc1ccc2c(c1)NC(=O)c1cnc(N(C)C3CCN(C)CC3)nc1N2 [Compound 14] | 400 | – |
| CCOc1ccc2c(c1)NC(=O)c1cnc(N(C)C3CCN(C)CC3)nc1N2 [Compound 15] | 900 | – |
| CN1CCC(N(C)c2ncc3c(n2)Nc2ccc(C(C)(C)C)cc2NC3=O)CC1 [Compound 16] | 400 | – |
| CN1CCC(N(C)c2ncc3c(n2)Nc2ccc(C(F)(F)F)cc2NC3=O)CC1 [Compound 17] | 1600 | – |
| CN1CCC(Nc2ncc3c(n2)Nc2ccc(C(C)(C)C)cc2NC3=O)CC1 [Compound 18] | 700 | – |
| Cc1ccc2c(c1)NC(=O)c1cnc(NC3CCN(C)CC3)nc1N2 [Compound 19] | 600 | – |
| CCN(c1ncc2c(n1)Nc1ccc(C)cc1NC2=O)C1CCN(C)CC1 [Compound 20] | 2800 | – |
| CCOc1ccc2c(c1)NC(=O)c1cnc(NC3CCN(C)CC3)nc1N2 [Compound 21] | 1000 | – |
| Cc1ccc2c(c1C)Nc1nc(N(C)C3CCN(C)CC3)ncc1C(=O)N2 [Compound 22] | 2600 | – |

| Structure (SMILES) | IC50 [1] [nM] | IC50 [2] [nM] |
| --- | --- | --- |
| Cc1ccc2c(c1C)Nc1nc(NC3CCN(C)CC3)ncc1C(=O)N2 [Compound 23] | 3600 | – |
| CN1CCC(N(C)c2ncc3c(n2)Nc2ccc(-c4ccsc4)cc2NC3=O)CC1 [Compound 25] | 1000 | – |
| Cc1ccc2c(c1)NC(=O)c1cnc(N(C(C)C)C3CCN(C)CC3)nc1N2 [Compound 26] | 6200 | – |
| Cc1noc(C)c1-c1ccc2c(c1)NC(=O)c1cnc(N(C)C3CCN(C)CC3)nc1N2 [Compound 29] | 3200 | – |
| Cc1cc2c(cc1C)Nc1nc(N(C)C3CCN(C)CC3)ncc1C(=O)N2 [Compound 32] | – | 640 |
| Cc1cc(C)c2c(c1)NC(=O)c1cnc(N(C)C3CCN(C)CC3)nc1N2 [Compound 33] | – | 1300 |
| Cc1cc(C)c2c(c1)NC(=O)c1cnc(NC3CCN(C)CC3)nc1N2 [Compound 34] | – | 3700 |
| CN1CCC(N(C)c2ncc3c(n2)Nc2cc(Cl)c(Cl)cc2NC3=O)CC1 [Compound 35] | – | 3700 |
| CN1CCC(Nc2ncc3c(n2)Nc2cc(Cl)c(Cl)cc2NC3=O)CC1 [Compound 36] | – | 1200 |
| CN1CCC(Nc2ncc3c(n2)Nc2ccc(N(C)C)cc2NC3=O)CC1 [Compound 37] | – | 190 |
| CN1CCC(N(C)c2ncc3c(n2)Nc2ccc(C#N)cc2NC3=O)CC1 [Compound 38] | – | 600 |
| CCN1CCC(Nc2ncc3c(n2)Nc2cc(Cl)c(Cl)cc2NC3=O)CC1 [Compound 39] | – | 4900 |
| CCN1CCC(Nc2ncc3c(n2)Nc2ccc(C(C)(C)C)cc2NC3=O)CC1 [Compound 40] | – | 1400 |
| CCN1CCC(Nc2ncc3c(n2)Nc2c(ccc(C)c2C)NC3=O)CC1 [Compound 41] | – | 6300 |
| CCN1CCC(Nc2ncc3c(n2)Nc2c(C)cc(C)cc2NC3=O)CC1 [Compound 42] | – | 4800 |
| CCOc1ccc2c(c1)NC(=O)c1cnc(NC3CCN(CC)CC3)nc1N2 [Compound 43] | – | 2000 |
| CCN1CCC(Nc2ncc3c(n2)Nc2ccc(C(C)C)cc2NC3=O)CC1 [Compound 44] | – | 920 |
| CCN1CCC(Nc2ncc3c(n2)Nc2ccc(C)cc2NC3=O)CC1 [Compound 45] | – | 1500 |
| Cc1cccc2c1Nc1nc(NC3CCN(C)CC3)ncc1C(=O)N2 [Compound 46] | – | 2400 |
| CCN1CCC(Nc2ncc3c(n2)Nc2cc(C)c(C)cc2NC3=O)CC1 [Compound 47] | – | 1500 |
| CCN(c1ncc2c(n1)Nc1ccc(C(C)C)cc1NC2=O)C1CCN(C)CC1 [Compound 48] | – | 3000 |
| CCOc1ccc2c(c1)NC(=O)c1cnc(NC3CCN(C(C)C)CC3)nc1N2 [Compound 49] | – | 5100 |

| Structure (SMILES) | IC50 [1] [nM] | IC50 [2] [nM] |
| --- | --- | --- |
| CC(C)c1ccc2c(c1)NC(=O)c1cnc(NC3CCN(C(C)C)CC3)nc1N2 [Compound 50] | – | 1200 |
| CC(C)N1CCC(Nc2ncc3c(n2)Nc2ccc(C(C)(C)C)cc2NC3=O)CC1 [Compound 51] | – | 2700 |
| CC(C)N1CCC(Nc2ncc3c(n2)Nc2ccc(F)cc2NC3=O)CC1 [Compound 52] | – | 3600 |
| Cc1ccc2c(c1)NC(=O)c1cnc(NC3CCN(C(C)C)CC3)nc1N2 [Compound 53] | – | 2400 |
| CCN1CCC(Nc2ncc3c(n2)Nc2c(C)cccc2NC3=O)CC1 [Compound 54] | – | 7100 |
| CCN1CCC(Nc2ncc3c(n2)Nc2ccc(C#N)cc2NC3=O)CC1 [Compound 55] | – | 2300 |
| CN1CCC(Nc2ncc3c(n2)Nc2ccc(C#N)cc2NC3=O)CC1 [Compound 56] | – | 1500 |
| Cc1cc2c(cc1C)Nc1nc(NC3CCN(C(C)C)CC3)ncc1C(=O)N2 [Compound 57] | – | 2000 |
| CC(C)N1CCC(Nc2ncc3c(n2)Nc2ccc(C#N)cc2NC3=O)CC1 [Compound 58] | – | 7100 |
| CCN(c1ncc2c(n1)Nc1ccc(F)cc1NC2=O)C1CCN(C)CC1 [Compound 59] | – | 2400 |
| CCN1CCC(Nc2ncc3c(n2)Nc2ccc(C(F)(F)F)cc2NC3=O)CC1 [Compound 60] | – | 2900 |
| CC(C)N1CCC(Nc2ncc3c(n2)Nc2ccc(C(F)(F)F)cc2NC3=O)CC1 [Compound 61] | – | 6500 |
| CN1CCC(Nc2ncc3c(n2)Nc2ccc(C(F)(F)F)cc2NC3=O)CC1 [Compound 62] | – | 1800 |
| CN1CCC(N(C)c2ncc3c(n2)Nc2ccc(-c4cccs4)cc2NC3=O)CC1 [Compound 63] | – | 1000 |
| CCOc1ccc2c(c1)NC(=O)c1cnc(N(C)C3CCN(C)CC3)nc1N2 [Compound 64] | – | 430 |
| CCOc1ccc2c(c1)NC(=O)c1cnc(NC3CCN(C)CC3)nc1N2 [Compound 65] | – | 520 |
| Cc1ccc2c(c1C)Nc1nc(NC3CCN(C)CC3)ncc1C(=O)N2 [Compound 66] | – | 3400 |
| CN1CCC(N(C)c2ncc3c(n2)Nc2ccc(C(F)(F)F)cc2NC3=O)CC1 [Compound 67] | – | 1300 |
| CN1CCC(N(C)c2ncc3c(n2)Nc2cc(N)ccc2NC3=O)CC1 [Compound 68] | – | 510 |
| CN1CCC(N(C)c2ncc3c(n2)Nc2cc(NC(=O)NC4CCCC4)ccc2NC3=O)CC1 [Compound 69] | – | 650 |

Reference: patent US7943608B2, “Diazepinoes” (Merck Patent GmbH, priority 2005, dated 2011)
